How the values were obtained:
Assay in all cases: relative viability (nuclei count vs DMSO), 5 days (fraction); higher = more cells survive
[1] = compound: C1=CC=C(C(=C1)C2=CC=C(C=C2)C3=CSC4=C3C(=C(C(=O)N4)C#N)O)O + Cc1nc(Nc2ncc(C(=O)Nc3c(C)cccc3Cl)s2)cc(N2CCN(CCO)CC2)n1 [Dasatinib] (partner 0.075 µM)
Summary of the method: (§1)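 Values are medians from duplicate plates. Each reflects relative viability, defined as the nuclei count of treated wells over that of vehicle wells. Lung cancer cell lines in 1536-well plates were pin-tool dosed one day after seeding with one drug alone or with a fixed anchor-drug dose plus five library-drug doses (not always all listed) in √10 steps, then fixed, stained and imaged at 4× after 5 days.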

[2] = compound: CC1=CN2C(=O)C=C(N=C2C(=C1)C(C)NC3=CC=CC=C3)N4CCOCC4 [TGX 221] + NC(=O)Nc1cc(-c2cccc(F)c2)sc1C(=O)N[C@H]1CCCNC1 [AZD7762] (partner 0.2 µM)
Summary of the method: as §1

[3] = compound: O=C(CCCCCCNC(=O)c1cnc(N(c2ccccc2)c2ccccc2)nc1)NO [Ricolinostat] + C[C@]1(O)C[C@@H](c2nc(-c3ccc4ccc(-c5ccccc5)nc4c3)c3c(N)nccn32)C1 [Linsitinib] (partner 1 µM)
Summary of the method: as §1

[4] = compound: O=C(CCCCCCNC(=O)c1cnc(N(c2ccccc2)c2ccccc2)nc1)NO [Ricolinostat] + CC(=O)c1c(C)c2cnc(Nc3ccc(N4CCNCC4)cn3)nc2n(C2CCCC2)c1=O [Palbociclib] (partner 0.5 µM)
Summary of the method: as §1

[5] = compound: CC1=CN2C(=O)C=C(N=C2C(=C1)C(C)NC3=CC=CC=C3)N4CCOCC4 [TGX 221] + Nc1ncn([C@H]2C[C@H](O)[C@@H](CO)O2)c(=O)n1 [Decitabine] (partner 2 µM)
Summary of the method: as §1

Cell Line: NCI-H1792
- relative viability ([1]; first compound 0.253 µM): 0.803
- relative viability ([1]; first compound 2.53 µM): 0.722
- relative viability ([1]; first compound 8 µM): 0.508
- relative viability ([2]; first compound 0.08 µM): 0.625
- relative viability ([2]; first compound 0.253 µM): 0.625
- relative viability ([2]; first compound 0.8 µM): 0.602
- relative viability ([2]; first compound 2.53 µM): 0.556
- relative viability ([2]; first compound 8 µM): 0.418
- relative viability ([3]; first compound 0.08 µM): 0.438
- relative viability ([3]; first compound 0.253 µM): 0.545
- relative viability ([3]; first compound 0.8 µM): 0.43
- relative viability ([3]; first compound 2.53 µM): 0.428
- relative viability ([4]; first compound 0.253 µM): 0.635
- relative viability ([4]; first compound 0.8 µM): 0.684
- relative viability ([4]; first compound 2.53 µM): 0.742
- relative viability ([5]; first compound 0.08 µM): 0.522
- relative viability ([5]; first compound 0.253 µM): 0.479
- relative viability ([5]; first compound 0.8 µM): 0.549
- relative viability ([5]; first compound 2.53 µM): 0.454
- relative viability ([5]; first compound 8 µM): 0.362

From the supplement of paper PMC10307832
